Experimental data reported in the supplement of paper PMC10307832.

Tests used:
Assay in all cases: relative viability (nuclei count vs DMSO), 5 days (fraction); higher = more cells survive
Ibrutinib + Olaparib = compound: C=CC(=O)N1CCC[C@@H](n2nc(-c3ccc(Oc4ccccc4)cc3)c3c(N)ncnc32)C1 [Ibrutinib] + O=C(c1cc(Cc2n[nH]c(=O)c3ccccc23)ccc1F)N1CCN(C(=O)C2CC2)CC1 [Olaparib] (partner 8 µM)
Method in brief: (§1)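 Relative viability was taken as the ratio of nuclei in treated wells to nuclei in vehicle wells. Lung cancer cell lines in 1536-well plates received compounds by pin tool one day after seeding, either one drug alone or a fixed anchor-drug dose plus five library-drug doses (not always all listed) in √10 steps. Nuclei were counted on 4× images after 5 days of treatment, and values are medians of duplicate plates.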

BMX-IN-1 + Dasatinib = compound: C=CC(=O)Nc1cc(-n2c(=O)ccc3cnc4ccc(-c5ccc(NS(C)(=O)=O)cc5)cc4c32)ccc1C [BMX-IN-1] + Cc1nc(Nc2ncc(C(=O)Nc3c(C)cccc3Cl)s2)cc(N2CCN(CCO)CC2)n1 [Dasatinib] (partner 0.075 µM)
Method in brief: as §1

PAC-1 + Navitoclax = compound: C=CCc1cccc(/C=N/NC(=O)CN2CCN(Cc3ccccc3)CC2)c1O [PAC-1] + CC1(C)CCC(c2ccc(Cl)cc2)=C(CN2CCN(c3ccc(C(=O)NS(=O)(=O)c4ccc(N[C@H](CCN5CCOCC5)CSc5ccccc5)c(S(=O)(=O)C(F)(F)F)c4)cc3)CC2)C1 [Navitoclax] (partner 0.5 µM)
Method in brief: as §1

PAC-1 + AZD7762 = compound: C=CCc1cccc(/C=N/NC(=O)CN2CCN(Cc3ccccc3)CC2)c1O [PAC-1] + NC(=O)Nc1cc(-c2cccc(F)c2)sc1C(=O)N[C@H]1CCCNC1 [AZD7762] (partner 0.2 µM)
Method in brief: as §1

Cell Line | relative viability (Ibrutinib + Olaparib; first compound 0.005 µM) | relative viability (Ibrutinib + Olaparib; first compound 0.01581 µM) | relative viability (Ibrutinib + Olaparib; first compound 0.05 µM) | relative viability (Ibrutinib + Olaparib; first compound 0.1581 µM) | relative viability (Ibrutinib + Olaparib; first compound 0.5 µM) | relative viability (BMX-IN-1 + Dasatinib; first compound 0.02 µM) | relative viability (BMX-IN-1 + Dasatinib; first compound 0.2 µM) | relative viability (BMX-IN-1 + Dasatinib; first compound 0.6325 µM) | relative viability (BMX-IN-1 + Dasatinib; first compound 2 µM) | relative viability (PAC-1 + Navitoclax; first compound 0.02 µM) | relative viability (PAC-1 + Navitoclax; first compound 0.06325 µM) | relative viability (PAC-1 + Navitoclax; first compound 0.2 µM) | relative viability (PAC-1 + Navitoclax; first compound 2 µM) | relative viability (PAC-1 + AZD7762; first compound 0.02 µM) | relative viability (PAC-1 + AZD7762; first compound 0.06325 µM) | relative viability (PAC-1 + AZD7762; first compound 0.2 µM) | relative viability (PAC-1 + AZD7762; first compound 2 µM)
BEN | 0.984 | 1.11 | 1.09 | 1.11 | 1.2 | 0.308 | 0.34 | 0.241 | 0.295 | 0.0891 | 0.0706 | 0.0845 | 0.0674 | 0.712 | 0.626 | 0.618 | 0.828
H3255 | 0.533 | 0.53 | 0.516 | 0.623 | 0.407 | 0.363 | 0.394 | 0.397 | 0.33 | 0.544 | 0.537 | 0.561 | 0.595 | 0.993 | 0.802 | 0.772 | 0.931
NCI-H1395 | 0.475 | 0.472 | 0.469 | 0.468 | 0.449 | 0.408 | 0.579 | 0.462 | 0.391 | 1.21 | 1.16 | 1.32 | 1.32 | 0.427 | 0.415 | 0.352 | 0.381
NCI-H1437 | 0.681 | 0.626 | 0.721 | 0.641 | 0.628 | 0.512 | 0.391 | 0.429 | 0.409 | 1.04 | 1.12 | 1.01 | 0.775 | 1.11 | 1.09 | 1.12 | 0.844
ChaGo-K-1 | 0.445 | 0.421 | 0.424 | 0.436 | 0.426 | 0.63 | 0.598 | 0.633 | 0.561 | 1.2 | 1.08 | 1.21 | 1.08 | 0.858 | 0.907 | 0.861 | 0.9
NCI-H1755 | 0.921 | 0.886 | 0.88 | 0.926 | 0.894 | 0.389 | 0.452 | 0.438 | 0.48 | 0.959 | 0.954 | 0.986 | 0.989 | 0.45 | 0.45 | 0.426 | 0.415
HOP-62 | 0.549 | 0.387 | 0.504 | 0.628 | 0.381 | 0.587 | 0.786 | 0.768 | 0.729 | 1.04 | 1.02 | 0.58 | 0.988 | 0.822 | 0.623 | 0.577 | 0.515
PC-14 | 0.369 | 0.318 | 0.37 | 0.286 | 0.265 | 0.313 | 0.227 | 0.339 | 0.279 | 0.968 | 0.975 | 0.959 | 1.03 | 0.382 | 0.322 | 0.45 | 0.343
EMC-BAC-2 | 0.505 | 0.52 | 0.56 |  | 0.562 | 0.348 | 0.345 | 0.326 | 0.353 | 1.14 | 1.22 | 1.19 | 1.14 | 1.13 | 1.24 | 1.19 | 1.15
